According to patent publication US8497240B2 (priority 2006, dated 2013):
Where two headings read alike, the source gives them in different places. Ends that are not written are not given here.

Legend:
[1] = assay type: in vivo, NIH/Swiss mice; settings: 80 nmol/kg, AUC240
Description: (§1) In FIG. 3A, bars represent mean±sd, n=6-10. […] Gavage (1.5 g/kg) was given at t=0, Sample was taken at t=30 min. […] In FIG. 3B, points represent mean±sem, n=8-15.
Points represent mean±sem.

[2] = assay type: in vivo, NIH/Swiss mice; settings: 30 nmol/kg
Description: as §1
Peptide was injected IP at t=−5 minutes into 4-hour fasted NIH/Swiss female mice. […] In FIG. 17 points represent mean+/−sem. […] Samples were taken at t=60, t=120 and t=180.

human GIP receptor = target: T1, human GIP receptor (Homo sapiens, UniProt P48546); experiment: biochemical; assay type: binding
T1 construct: expressed in transfected cells; host or cells: HEK293 (HEK-GIPR), membranes
T1 sequence (P48546 22-466): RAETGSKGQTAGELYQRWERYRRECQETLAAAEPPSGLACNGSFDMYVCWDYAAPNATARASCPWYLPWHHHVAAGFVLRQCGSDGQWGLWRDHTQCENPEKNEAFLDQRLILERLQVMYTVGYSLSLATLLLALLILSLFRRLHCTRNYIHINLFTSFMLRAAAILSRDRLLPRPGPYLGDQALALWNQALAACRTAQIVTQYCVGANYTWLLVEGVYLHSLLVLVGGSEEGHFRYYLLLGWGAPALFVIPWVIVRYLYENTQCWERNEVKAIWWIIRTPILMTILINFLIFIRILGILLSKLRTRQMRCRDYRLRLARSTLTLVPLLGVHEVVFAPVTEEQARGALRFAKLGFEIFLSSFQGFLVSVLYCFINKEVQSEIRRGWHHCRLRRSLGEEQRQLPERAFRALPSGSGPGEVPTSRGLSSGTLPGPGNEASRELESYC

[3] = read-out: (% Inh 10 nm, GIP-LF Assay)

CC[C@H](C)[C@H](NC(=O)[C@H](CO)NC(=O)[C@H](Cc1ccc(O)cc1)NC(=O)[C@H](CC(=O)O)NC(=O)[C@H](CO)NC(=O)[C@@H](NC(=O)[C@H](Cc1ccccc1)NC(=O)[C@@H](NC(=O)CNC(=O)[C@H](CC(=O)O)NC(=O)[C@H](CO)NC(=O)[C@@H](N)Cc1ccc(O)cc1)[C@@H](C)O)[C@@H](C)CC)C(=O)N[C@@H](C)C(=O)N[C@@H](CCSC)C(=O)N[C@@H](CC(=O)O)C(=O)N[C@@H](CCCCN)C(=O)N[C@H](C(=O)N[C@@H](Cc1c[nH]cn1)C(=O)N[C@@H](CCC(N)=O)C(=O)N[C@@H](CCC(N)=O)C(=O)N[C@@H](CC(=O)O)C(=O)N[C@@H](Cc1ccccc1)C(=O)N[C@H](C(=O)N[C@@H](CC(N)=O)C(=O)N[C@@H](Cc1c[nH]c2ccccc12)C(=O)N[C@@H](CC(C)C)C(=O)N[C@@H](CC(C)C)C(=O)N[C@@H](C)C(=O)N[C@@H](CCC(N)=O)C(=O)N[C@@H](CCCCN)C(=O)NCCC(=O)N1CCC[C@H]1C(=O)N[C@@H](CO)C(=O)N[C@@H](CO)C(=O)NCC(=O)N[C@@H](C)C(=O)N1CCC[C@H]1C(=O)N1CCC[C@H]1C(=O)N1CCC[C@H]1C(=O)N[C@@H](CO)C(N)=O)C(C)C)[C@@H](C)CC [Compound 0601GIP4395]
Basal Glucose Lowering at Peptide Conc. of 80 nmol/kg [1]: −0%, AUC240 | OGTT/GL (%) [2]: −11, 30%

CC[C@H](C)[C@H](NC(=O)CNC(=O)[C@H](CCCCN)NC(=O)[C@H](Cc1c[nH]c2ccccc12)NC(=O)[C@H](CC(C)C)NC(=O)[C@@H](NC(=O)[C@H](Cc1ccccc1)NC(=O)CNC(=O)[C@H](CCCCN)NC(=O)[C@H](CCC(N)=O)NC(=O)[C@H](C)NC(=O)[C@H](CC(C)C)NC(=O)[C@H](CC(C)C)NC(=O)[C@H](Cc1c[nH]c2ccccc12)NC(=O)[C@H](CC(N)=O)NC(=O)[C@@H](NC(=O)[C@H](Cc1ccccc1)NC(=O)[C@H](CC(=O)O)NC(=O)[C@H](CCC(N)=O)NC(=O)[C@H](CCC(N)=O)NC(=O)[C@H](Cc1c[nH]cn1)NC(=O)[C@@H](NC(=O)[C@H](CCCCN)NC(=O)[C@H](CC(=O)O)NC(=O)[C@H](CCSC)NC(=O)[C@H](C)NC(=O)[C@@H](NC(=O)[C@H](CO)NC(=O)[C@H](Cc1ccc(O)cc1)NC(=O)[C@H](CC(=O)O)NC(=O)[C@H](CO)NC(=O)[C@@H](NC(=O)[C@H](Cc1ccccc1)NC(=O)[C@@H](NC(=O)CNC(=O)[C@H](CCC(=O)O)NC(=O)[C@@H](C)NC(=O)[C@@H](N)Cc1ccc(O)cc1)[C@@H](C)O)[C@@H](C)CC)[C@@H](C)CC)[C@@H](C)CC)C(C)C)C(C)C)C(=O)N[C@@H](CCC(N)=O)C(N)=O [Compound 0601GIP4619]
inhibition at 0.01 µM (human GIP receptor; read-out: GIP RBA (% Inh 10 nM)): 84.6%

CC[C@H](C)[C@H](NC(=O)[C@H](CO)NC(=O)[C@H](Cc1ccc(O)cc1)NC(=O)[C@H](CC(=O)O)NC(=O)[C@H](CO)NC(=O)[C@@H](NC(=O)[C@H](Cc1ccccc1)NC(=O)[C@@H](NC(=O)CNC(=O)[C@H](CCC(=O)O)NC(=O)[C@@H](C)NC(=O)[C@@H](N)Cc1ccc(O)cc1)[C@@H](C)O)[C@@H](C)CC)C(=O)N[C@@H](C)C(=O)N[C@@H](CCSC)C(=O)N[C@@H](CC(=O)O)C(=O)N[C@@H](CCCCN)C(=O)N[C@H](C(=O)N[C@@H](Cc1c[nH]cn1)C(=O)N[C@@H](CCC(N)=O)C(=O)N[C@@H](CCC(N)=O)C(=O)N[C@@H](CC(=O)O)C(=O)N[C@@H](Cc1ccccc1)C(=O)N[C@H](C(=O)N[C@@H](CC(N)=O)C(=O)N[C@@H](Cc1c[nH]c2ccccc12)C(=O)N[C@@H](CC(C)C)C(=O)N[C@@H](CC(C)C)C(=O)N[C@@H](C)C(=O)N[C@@H](CCC(N)=O)C(=O)N[C@@H](CCCCN)C(=O)N1CCC[C@H]1C(=O)N[C@@H](CCCCN)C(=O)N[C@@H](CCCCN)C(=O)N[C@H](C(=O)N[C@@H](CCCNC(=N)N)C(=O)N[C@@H](C)C(=O)N[C@@H](CO)C(N)=O)[C@@H](C)CC)C(C)C)[C@@H](C)CC [Compound 0601GIP4818]
Basal Gluc. Low. 80 nmol/Kg [1]: −9%, | OGTT/GL (%) [2]: −23, %

CC[C@H](C)[C@H](NC(=O)[C@H](CO)NC(=O)[C@H](Cc1ccc(O)cc1)NC(=O)[C@H](CC(=O)O)NC(=O)[C@H](CO)NC(=O)[C@@H](NC(=O)[C@H](Cc1ccccc1)NC(=O)[C@@H](NC(=O)CNC(=O)[C@H](CCC(=O)O)NC(=O)CNC(=O)[C@@H](N)Cc1c[nH]cn1)[C@@H](C)O)[C@@H](C)CC)C(=O)N[C@@H](C)C(=O)N[C@@H](CCSC)C(=O)N[C@@H](CC(=O)O)C(=O)N[C@@H](CCCCN)C(=O)N[C@H](C(=O)N[C@@H](Cc1c[nH]cn1)C(=O)N[C@@H](CCC(N)=O)C(=O)N[C@@H](CCC(N)=O)C(=O)N[C@@H](CC(=O)O)C(=O)N[C@@H](Cc1ccccc1)C(=O)N[C@H](C(=O)N[C@@H](CC(N)=O)C(=O)N[C@@H](Cc1c[nH]c2ccccc12)C(=O)N[C@@H](CC(C)C)C(=O)N[C@@H](CC(C)C)C(=O)N[C@@H](C)C(=O)N[C@@H](CCC(N)=O)C(=O)N[C@@H](CCCCN)C(=O)N1CCC[C@H]1C(=O)N[C@@H](CCCCN)C(=O)N[C@@H](CCCCN)C(=O)N[C@H](C(=O)N[C@@H](CCCNC(=N)N)C(=O)N[C@@H](Cc1ccc(O)cc1)C(=O)N[C@@H](CO)C(N)=O)[C@@H](C)CC)C(C)C)[C@@H](C)CC [Compound 0601GIP4839]
inhibition at 0.01 µM (human GIP receptor; [3]): 23.9%

CC[C@H](C)[C@H](NC(=O)[C@H](CCCCN)NC(=O)[C@H](CC(=O)O)NC(=O)[C@H](CC(C)C)NC(=O)[C@H](C)NC(=O)[C@@H](NC(=O)[C@H](CO)NC(=O)[C@H](Cc1ccc(O)cc1)NC(=O)[C@H](CC(=O)O)NC(=O)[C@H](CO)NC(=O)[C@@H](NC(=O)[C@H](Cc1ccccc1)NC(=O)[C@@H](NC(=O)CNC(=O)[C@H](CCC(=O)O)NC(=O)CNC(=O)[C@@H](N)Cc1c[nH]cn1)[C@@H](C)O)[C@@H](C)CC)[C@@H](C)CC)C(=O)N[C@@H](C)C(=O)N[C@@H](CCC(N)=O)C(=O)N[C@@H](CCC(N)=O)C(=O)N[C@@H](CCC(=O)O)C(=O)N[C@@H](Cc1ccccc1)C(=O)N[C@H](C(=O)N[C@@H](CC(N)=O)C(=O)N[C@@H](Cc1c[nH]c2ccccc12)C(=O)N[C@@H](CC(C)C)C(=O)N[C@@H](CC(C)C)C(=O)N[C@@H](C)C(=O)N[C@@H](CCC(N)=O)C(=O)N[C@@H](CCCCN)C(=O)N1CCC[C@H]1C(=O)N[C@@H](CCCCN)C(=O)N[C@@H](CCCCN)C(=O)N[C@H](C(=O)N[C@@H](CCCNC(=N)N)C(=O)N[C@@H](Cc1ccc(O)cc1)C(=O)N[C@@H](CO)C(N)=O)[C@@H](C)CC)C(C)C [Compound 0601GIP4841]
inhibition at 0.01 µM (human GIP receptor; [3]): 56.6%

CC[C@H](C)[C@H](NC(=O)[C@H](CO)NC(=O)[C@H](Cc1ccc(O)cc1)NC(=O)[C@H](CC(=O)O)NC(=O)[C@H](CO)NC(=O)[C@@H](NC(=O)[C@H](Cc1ccccc1)NC(=O)[C@@H](NC(=O)CNC(=O)[C@H](CCC(=O)O)NC(=O)[C@@H](C)NC(=O)[C@@H](N)Cc1ccc(O)cc1)[C@@H](C)O)[C@@H](C)CC)C(=O)N[C@@H](C)C(=O)N[C@@H](CCSC)C(=O)N[C@@H](CC(=O)O)C(=O)N[C@@H](CCCCN)C(=O)N[C@H](C(=O)N[C@@H](Cc1c[nH]cn1)C(=O)N[C@@H](CCC(N)=O)C(=O)N[C@@H](CCC(N)=O)C(=O)N[C@@H](CC(=O)O)C(=O)N[C@@H](Cc1ccccc1)C(=O)N[C@H](C(=O)N[C@@H](CCC(N)=O)C(=O)N[C@@H](Cc1c[nH]c2ccccc12)C(=O)N[C@@H](CC(C)C)C(=O)N[C@@H](CC(C)C)C(=O)N[C@@H](C)C(=O)N[C@@H](CCC(N)=O)C(=O)N[C@@H](CCCCN)C(=O)N1CCC[C@H]1C(=O)N[C@@H](CO)C(=O)N[C@@H](CO)C(=O)NCC(=O)N[C@@H](C)C(=O)N1CCC[C@H]1C(=O)N1CCC[C@H]1C(=O)N1CCC[C@H]1C(=O)N[C@@H](CO)C(N)=O)C(C)C)[C@@H](C)CC [Compound 0601GIP4846]
Basal Glucose Lowering at Peptide Conc. of 80 nmol/kg [1]: −6%, | OGTT/GL (%) [2]: −25, %

CC[C@H](C)[C@H](NC(=O)[C@H](CO)NC(=O)[C@H](Cc1ccc(O)cc1)NC(=O)[C@H](CC(=O)O)NC(=O)[C@H](CO)NC(=O)[C@@H](NC(=O)[C@H](Cc1ccccc1)NC(=O)[C@@H](NC(=O)CNC(=O)[C@H](CCC(=O)O)NC(=O)[C@@H](C)NC(=O)[C@@H](N)Cc1ccc(O)cc1)[C@@H](C)O)[C@@H](C)CC)C(=O)N[C@@H](C)C(=O)N[C@@H](CCSC)C(=O)N[C@@H](CC(=O)O)C(=O)N[C@@H](CCCCN)C(=O)N[C@H](C(=O)N[C@@H](Cc1c[nH]cn1)C(=O)N[C@@H](CCC(N)=O)C(=O)N[C@@H](CCC(N)=O)C(=O)N[C@@H](CC(=O)O)C(=O)N[C@@H](Cc1ccccc1)C(=O)N[C@H](C(=O)N[C@@H](CC(N)=O)C(=O)N[C@@H](Cc1c[nH]c2ccccc12)C(=O)N[C@@H](CC(C)C)C(=O)N[C@@H](CC(C)C)C(=O)N[C@@H](C)C(=O)N[C@@H](CCC(N)=O)C(=O)N[C@@H](CCCCN)C(=O)N1CCC[C@H]1C(=O)N[C@@H](CO)C(=O)N[C@@H](CO)C(=O)NCC(=O)N[C@@H](C)C(=O)N1CCC[C@H]1C(=O)NCC(=O)N1CCC[C@H]1C(=O)N[C@@H](CO)C(N)=O)C(C)C)[C@@H](C)CC [Compound 0601GIP4952]
Basal Glucose Lowering at Peptide Conc. of 80 nmol/kg [1]: −1, % | OGTT/GL (%) [2]: −21, %

HGEGTFISDYSIALDKIRQQEFVNWLLAQKPKKIRYS-NH2 [Compound 0601GIP4842]
inhibition at 0.01 µM (human GIP receptor; [3]): 40.8%

HGEGTLISDYSIAMDKIHQQDFVNWLLAQKPKKIRYS-NH2 [Compound 0601GIP4843]
inhibition at 0.01 µM (human GIP receptor; [3]): 3%
